Each structure is given as a SMILES string.

The target of this assay is T1, histamine-3 receptor (Rattus norvegicus, UniProt Q9QYN8).
T1 construct: from tissue; host or cells: male Sprague-Dawley rat brain cortex membranes
T1 sequence (Q9QYN8 whole entry): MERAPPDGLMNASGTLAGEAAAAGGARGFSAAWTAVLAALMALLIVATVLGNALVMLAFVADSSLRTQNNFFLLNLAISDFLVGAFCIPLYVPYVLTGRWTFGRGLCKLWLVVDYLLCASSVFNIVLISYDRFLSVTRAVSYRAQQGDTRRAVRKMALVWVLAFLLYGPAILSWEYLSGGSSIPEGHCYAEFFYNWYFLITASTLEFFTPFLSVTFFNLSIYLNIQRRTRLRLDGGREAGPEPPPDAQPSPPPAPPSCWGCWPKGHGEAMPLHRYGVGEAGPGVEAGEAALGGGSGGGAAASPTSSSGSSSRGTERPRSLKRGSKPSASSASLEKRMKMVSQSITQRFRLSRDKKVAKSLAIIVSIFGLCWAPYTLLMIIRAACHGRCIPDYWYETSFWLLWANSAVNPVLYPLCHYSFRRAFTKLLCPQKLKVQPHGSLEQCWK
Briefly: Histamine-3 receptor binding, (3H)-N-α-methylhistamine displacement in rat cortical membranes. To be noted: male Sprague-Dawley rat brain cortical membranes; (3H)-N-α-methylhistamine ~0.6 nM; 30 minutes at 25° C.; Cheng-Prusoff. In short, it runs like this:
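Male Sprague-Dawley rat cortical membranes incubated 30 min at 25 °C with compound dilutions and [3H]-N-α-methylhistamine. Nonspecific binding defined with 3 μM thioperamide. Filtration and scintillation counting used; Ki from Hill transformation and Cheng-Prusoff equation.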
One may read the Ki as the equilibrium dissociation constant of an inhibitor or competing ligand from its target. Higher therefore signals a looser hold on the target. Turning to `COC(=O)N(C)[C@@H]1CCN(CCCOc2ccc(-c3ccc(C#N)cc3)cc2)C1` [Example 113, methyl (3R)-1-{3-[(4′-cyano[1,1′-biphenyl]-4-yl)oxy]propyl}pyrrolidinyl(methyl)carbamate], affinity was put at a Ki of 13 nM. That is a double-digit nanomolar value.

`CCC(C)(C)OC(=O)N(C)[C@@H]1CCN(CCCOc2ccc(-c3ccc(C#N)cc3)cc2)C1` [Example 114, tert-pentyl (3R)-1-{3-[(4′-cyano[1,1′-biphenyl]-4-yl)oxy]propyl}pyrrolidinyl(methyl)carbamate] showed a Ki of 65 nM.

The compound `CN(C)C(=O)N(C)[C@@H]1CCN(CCCOc2ccc(-c3ccc(C#N)cc3)cc2)C1` [Example 115, N-((3R)-1-{3-[(4′-cyano[1,1′-biphenyl]-4-yl)oxy]propyl}pyrrolidinyl)-N,N,′N′-trimethylurea] yielded a Ki of 21 nM. This Ki lies about 3.1-fold lower than the previous one.

`CN(C(=O)N1CCCC1)[C@@H]1CCN(CCCOc2ccc(-c3ccc(C#N)cc3)cc2)C1` [Example 116] came in with a Ki of 14 nM.

As for `CN(C(=O)NC(C)(C)C)[C@@H]1CCN(CCCOc2ccc(-c3ccc(C#N)cc3)cc2)C1` [Example 117, N′-tert-butyl-N-((3R)-1-{3-[(4′-cyano[1,1′-biphenyl]-4-yl)oxy]propyl}pyrrolidinyl)-N-methylurea], the Ki was 45 nM.

The compound `CN(C(=O)N1CCOCC1)[C@@H]1CCN(CCCOc2ccc(-c3ccc(C#N)cc3)cc2)C1` [Example 118] came in with a Ki of 5.7 nM.

For `CN(C(=O)c1ccc(F)cc1)[C@@H]1CCN(CCCOc2ccc(-c3ccc(C#N)cc3)cc2)C1` [Example 119], the Ki amounted to 7.7 nM. This Ki and that of the compound before are within 1.5-fold of each other.

In turn, `CN(C(=O)c1ccc(C#N)cc1)[C@@H]1CCN(CCCOc2ccc(-c3ccc(C#N)cc3)cc2)C1` [Example 120, 4-cyano-N-((3R)-1-{3-[(4′-cyano[1,1′-biphenyl]-4-yl)oxy]propyl}pyrrolidinyl)-N-methylbenzamide] displayed an inhibitory constant (Ki) of 10 nM.

In the case of `CN(C(=O)c1cccnc1)[C@@H]1CCN(CCCOc2ccc(-c3ccc(C#N)cc3)cc2)C1` [Example 121], the affinity, expressed as Ki, was 16 nM.

Compound `CN(C(=O)c1ccco1)[C@@H]1CCN(CCCOc2ccc(-c3ccc(C#N)cc3)cc2)C1` [Example 122] yielded a Ki of 20 nM. The Ki values of the last two compounds are within 1.5-fold of each other.

With `CN(C(=O)c1csc(-c2cccnc2)n1)[C@@H]1CCN(CCCOc2ccc(-c3ccc(C#N)cc3)cc2)C1` [Example 123], the Ki stood at 5.6 nM.

`CN(C)S(=O)(=O)N(C)[C@@H]1CCN(CCCOc2ccc(-c3ccc(C#N)cc3)cc2)C1` [Example 124] displayed a Ki of 2.9 nM.

Compound `CN([C@@H]1CCN(CCCOc2ccc(-c3ccc(C#N)cc3)cc2)C1)S(=O)(=O)c1cccc(F)c1` [Example 125] yielded a Ki of 7.4 nM.

Take `CN([C@@H]1CCN(CCCOc2ccc(-c3ccc(C#N)cc3)cc2)C1)S(=O)(=O)c1ccc(C#N)cc1` [Example 126, 4-cyano-N-((3R)-1-{3-[(4′-cyano[1,1′-biphenyl]-4-yl)oxy]propyl}pyrrolidinyl)-N-methylbenzenesulfonamide]: the affinity corresponds to a Ki of 4.6 nM.

Compound `CC(C)c1ccc(S(=O)(=O)N(C)[C@@H]2CCN(CCCOc3ccc(-c4ccc(C#N)cc4)cc3)C2)cc1` [Example 127, N-((3R)-1-{3-[(4′-cyano[1,1′-biphenyl]-4-yl)oxy]propyl}pyrrolidinyl)-4-isoproply-N-methylbenzensulfonamide] registered a Ki of 16 nM.

For the compound `CN([C@@H]1CCN(CCCOc2ccc(-c3ccc(C#N)cc3)cc2)C1)S(=O)(=O)c1ccc(S(C)(=O)=O)cc1` [Example 128], the affinity, expressed as Ki, was 2.3 nM.

`CC(=O)N[C@@H]1CCN(CCCOc2ccc(-c3ccc(C#N)cc3)cc2)C1` [Example 130] gave a Ki of 31 nM.

`CC(C)(C)CC(=O)N[C@@H]1CCN(CCCOc2ccc(-c3ccc(C#N)cc3)cc2)C1` [Example 131]: the Ki worked out at 51 nM.

`C=CCOC(=O)N[C@@H]1CCN(CCCOc2ccc(-c3ccc(C#N)cc3)cc2)C1` [Example 132, allyl (3R)-1-{3-[(4′-cyano[1,1′-biphenyl]-4-yl)oxy]propyl}pyrrolidinylcarbamate] had a Ki of 74 nM.

On to `COC(=O)N[C@@H]1CCN(CCCOc2ccc(-c3ccc(C#N)cc3)cc2)C1` [Example 133, methyl (3R)-1-{3-[(4′-cyano[1,1′-biphenyl]-4-yl)oxy]propyl}pyrrolidinylcarbamate], for which the Ki was determined as 57 nM. This Ki and that of the compound before are within 1.5-fold of each other.

`CCC(C)(C)OC(=O)N[C@@H]1CCN(CCCOc2ccc(-c3ccc(C#N)cc3)cc2)C1` [Example 134, tert-pentyl (3R)-1-{3-[(4′-cyano[1,1′-biphenyl]-4-yl)oxy]propyl}pyrrolidinylcarbamate] came in with a Ki of 168 nM. Against the preceding compound, the Ki is about 2.9-fold higher.

Turning to `CN(C)C(=O)N[C@@H]1CCN(CCCOc2ccc(-c3ccc(C#N)cc3)cc2)C1` [Example 135], the Ki is 132 nM.

`N#Cc1ccc(-c2ccc(OCCCN3CC[C@@H](NC(=O)N4CCCC4)C3)cc2)cc1` [Example 136] gave a Ki of 215 nM. Compared with the last compound, the Ki is about 1.6-fold higher.

`CC(C)(C)NC(=O)N[C@@H]1CCN(CCCOc2ccc(-c3ccc(C#N)cc3)cc2)C1` [Example 137, N-(tert-butyl)-N′-((3R)-1-{3-[(4′-cyano[1,1′-biphenyl]-4-yl)oxy]propyl}pyrrolidinyl)urea] came in with a Ki of 196 nM. This Ki and that of the compound before are within 1.5-fold of each other.

`N#Cc1ccc(-c2ccc(OCCCN3CC[C@@H](NC(=O)N4CCOCC4)C3)cc2)cc1` [Example 138]: the Ki was determined as 118 nM.

`N#Cc1ccc(-c2ccc(OCCCN3CC[C@@H](NC(=O)c4ccc(F)cc4)C3)cc2)cc1` [Example 139] showed a Ki of 288 nM.

Consider `N#Cc1ccc(C(=O)N[C@@H]2CCN(CCCOc3ccc(-c4ccc(C#N)cc4)cc3)C2)cc1` [Example 140, 4-cyano-N-((3R)-1-{3-[(4′-cyano[1,1′-biphenyl]-4-yl)oxy]propyl}pyrrolidinyl)benzamide], for which the Ki came out at 220 nM.

In the case of `N#Cc1ccc(-c2ccc(OCCCN3CC[C@@H](NC(=O)c4cccnc4)C3)cc2)cc1` [Example 141], the Ki was determined as 342 nM.

`N#Cc1ccc(-c2ccc(OCCCN3CC[C@@H](NC(=O)c4ccco4)C3)cc2)cc1` [Example 142]: the affinity corresponds to a Ki of 321 nM.

Turning to `N#Cc1ccc(-c2ccc(OCCCN3CC[C@@H](NC(=O)c4csc(-c5cccnc5)n4)C3)cc2)cc1` [Example 143], the Ki was 85 nM.

On to `CC(C)S(=O)(=O)N[C@@H]1CCN(CCCOc2ccc(-c3ccc(C#N)cc3)cc2)C1` [Example 144], for which the affinity corresponds to a Ki of 21 nM. Compared with the last compound, the Ki is about 4-fold lower.

For the compound `CN(C)S(=O)(=O)N[C@@H]1CCN(CCCOc2ccc(-c3ccc(C#N)cc3)cc2)C1` [Example 145], the affinity, expressed as Ki, was 9.6 nM.

The compound `CS(=O)(=O)c1ccc(S(=O)(=O)N[C@@H]2CCN(CCCOc3ccc(-c4ccc(C#N)cc4)cc3)C2)cc1` [Example 146] gave a Ki of 3 nM.

The compound `CC(C)(C)CC(=O)N(C(=O)CC(C)(C)C)[C@@H]1CCN(CCCOc2ccc(-c3ccc(C#N)cc3)cc2)C1` [Example 147] registered a Ki of 209 nM.

`CN(C)C(=O)N(C(=O)N(C)C)[C@@H]1CCN(CCCOc2ccc(-c3ccc(C#N)cc3)cc2)C1` [Example 148] had a Ki of 291 nM.

Turning to `N#Cc1ccc(-c2ccc(OCCCN3CC[C@@H](N(C(=O)N4CCCC4)C(=O)N4CCCC4)C3)cc2)cc1` [Example 149], affinity was put at a Ki of 329 nM.

`N#Cc1ccc(-c2ccc(OCCCN3CC[C@@H](N(C(=O)N4CCOCC4)C(=O)N4CCOCC4)C3)cc2)cc1` [Example 150] displayed a Ki of 267 nM.

The values are drawn from US6620839B2, “1,3-disubstituted and 1,3,3-trisubstituted pyrrolidines as histamine-3 receptor ligands and their therapeutic applications” (Abbott Laboratories, priority 2000, dated 2003).
